Test system: influenza virus H1N1 (A/Victoria/07159200/07), oseltamivir-resistant strain
Assay type: cell-based, human influenza virus

C[C@@H]1O[C@@H](OC[C@H]2O[C@@H](OCCc3ccc(O)c(O)c3)[C@H](O)[C@@H](O)[C@@H]2OC(=O)/C=C/c2ccc(O)c(O)c2)[C@H](O)[C@H](O)[C@H]1O [Compound A1, forsythoside A]
suppression of virus replication (TCID50) compared with DMSO-treated cells: ~3 fold
